The record followed here is patent US20090110671A1, “AGENT FOR ENHANCHING THE PRODUCTION OF COLLAGEN AND IT'S USE” (priority 2005, published 2009).

Assay [1] has as its system NHDF cells. Briefly: Experiment 2: collagen sedimented over cell surface and released in supernatant of NHDF cells, α,α-trehalose or maltose with AA-2G. The assay is classed as cell-based, human. How it is done:
Influence of α,α-trehalose and maltose on collagen production using NHDF cells was examined by the following experiment: Test solutions were prepared by dissolving either AA-2G; hydrous crystalline α,α-trehalose, a reagent grade specimen, commercialized by Hayashibara Biochemical Laboratories Inc., Okayama, Japan; or hydrous crystalline maltose, a reagent grade specimen, commercialized by Hayashibara Biochemical Laboratories Inc., Okayama; Japan, in […] The methods for culturing NHDF cells and quantifying the collagen-production level of the cells were conducted similarly as in Experiment 1. The collagen level in each culture supernatant of NHDF cells was determined in such a manner of collecting the culture supernatant and quantifying the collagen released in the supernatant by using “Sircol Collagen Quantification Kit”. As a control, D-MEM medium containing 50 μM AA-2G was used. These control and test solutions were respectively experimented using three wells, followed by calculating a mean value for collagen-production levels in the wells. The results are in Table 2 where the values are expressed with relative values for either or both of the levels of collagen, that had sedimented over the cell surfaces or released in the supernatants, in terms of their collagen-production levels of NHDF cells, which had been cultured in D-MEM medium containing 50 μM AA-2G, being regarded as 100.

Assay [2] deals with NHDF cells. Briefly: Experiment 3: collagen production in NHDF cells, α,α-trehalose and saccharide derivatives with or without AA-2G. Type of assay: cell-based, human. As for the experimental part:
Based on the confirmation that α,α-trehalose has an action of enhancing the collagen production by L-ascorbic acid, it was experimented as follows to confirm whether saccharide derivatives of α,α-trehalose have such a similar action and effect. Test solutions were prepared by dissolving in D-MEM medium any one of AA-2G, hydrous crystalline α,α-trehalose, a reagent grade specimen with a purity of at least 98%, commercialized by Hayashibara Biochemical Laboratories Inc., Okayama, Japan; “HALLODEX”, a product name of a syrup of saccharide derivatives of α,α-trehalose, having a solid content of about 75% and containing, on a dry solid basis, about 53% of α-maltosyl α,α-trehalose and about 5% of other saccharide derivatives of α,α-trehalose in total, to give final concentrations of 50 μM of AA-2G and 15.0 mg/ml of saccharides. As a control, test solutions were prepared by dissolving in D-MEM medium either of the above hydrous crystalline α,α-trehalose, α-maltosyl α,α-trehalose, or syrup of saccharide derivatives of α,α-trehalose to give a final concentration of 15.0 mg/ml. The medium admixed with the syrup containing saccharide derivatives of α,α-trehalose was adjusted to give a concentration of 15.0 mg/ml of saccharide derivatives of α,α-trehalose. The culture of NHDF cells and the quantification of collagen-production level thereof were carried out similarly as in Experiment 1. The results are in Table 3, where the values are expressed with relative values in terms of the collagen production level of NHDF cells, being regarded as 100, when cultured in D-MEM medium containing AA-2G.

The subject of assay [3] is NHDF cells. The assay can be described thus: Experiment 4: collagen production in NHDF cells, saccharides combined with hyaluronic acid and/or chondroitin sulfate. Type of assay: cell-based, human. From the text: Influence of α,α-trehalose or a saccharide derivative thereof, or a combination use of any of these saccharides and hyaluronic acid and/or chondroitin sulfate on the collagen production by L-ascorbic acids was examined as follows. AA-2G and any one of hydrous crystalline α,α-trehalose, a reagent grade specimen commercialized by Hayashibara Biochemical Laboratories Inc., Okayama, Japan; α-maltosyl α,α-trehalose with a purity of at least 98% commercialized by Hayashibara Biochemical Laboratories Inc., Okayama, Japan; and “HALLODEX”, a product name of a syrup of saccharide derivatives of α,α-trehalose were dissolved in D-MEM medium to give final concentrations of 50 μM of AA-2G and 15.0 mg/ml of saccharides. Further, as another test solutions, those, which had been prepared similarly as in the above, were admixed with any one of hyaluronic acid, chondroitin sulfate, and a combination thereof to give respective concentrations of 1 mg/ml, 1 mg/ml, and 0.5 mg/ml of hyaluronic acid and chondroitin sulfate each. The medium supplemented with a syrup containing about 59%, d.s.b., of saccharide derivatives of α,α-trehalose was prepared to give a concentration of 15.0 mg/ml of the saccharide derivatives of α,α-trehalose contained in the syrup. The culture of NHDF cells and the quantification of collagen-production level thereof were carried out similarly as in Experiment 1. The results are in Table 4 where the values are expressed with relative values in terms of the collagen-production level of NHDF cells, being regarded as 100, when cultured in D-MEM medium containing AA-2G.

For assay [4], the system named is NHDF cells (normal human dermal fibroblast cell). Briefly: Experiment 1: collagen production in NHDF cells (Sircol kit), α,α-trehalose with AA-2G. Type of assay: cell-based. The note with it: D-MEM with 50 μM AA-2G, no α,α-trehalose; reference regarded as 100. As for the experimental part:
Using “fibrocell NHDF”, a normal human dermal fibroblast cell, commercialized by Kurashiki Spinning Co., Ltd., Okayama, Japan (abbreviated as “NHDF cells”, hereinafter), experiment for studying the influence of α,α-trehalose on the collagen production by L-ascorbic acids was conducted based on the method described in Bioscience, Biotechnology, and Biochemistry, Vol. 68, No. 4, pp. 767-773, 2004. The method is outlined below: Test solutions were prepared by dissolving L-ascorbic acid 2-glucoside, a reagent grade specimen commercialized by Hayashibara Biochemical Laboratories Inc., Okayama, Japan (may be abbreviated as “AA-2G”, hereinafter), and α,α-trehalose, a reagent grade specimen commercialized by Hayashibara Biochemical Laboratories Inc., Okayama, Japan, in Dulbecco […] essential medium containing 10% (v/v) fetal calf serum and an antibiotic (abbreviated as “D-MEM”, hereinafter) to give a final concentration of 50 μM/ml of AA-2G and a final concentration of 7.5, 15 or 30 mg/ml of α,α-trehalose. NHDF cells, which had been successively cultured in D-MEM medium, were collected, re-suspended in a fresh preparation of D-MEM medium, inoculated to 96-well microplates at a cell concentration of 2.5×10^4 cells/200 μl/well, and cultured for 24 hours. Thereafter, the supernatants of the cultures were removed by sucking, and further cultured for five days after addition of any of the test solutions in a volume of 200 μl/well. As controls, the cells, which had been cultured for 24 hours, were further cultured for five days after addition of 200 μl/well of D-MEM medium, D-MEM medium supplemented with α,α-trehalose at a concentration of 30 mg/ml, or D-MEM medium supplemented with AA-2G at a concentration of 50 μM/ml. After completion of culturing, the supernatants of the cultures were removed by sucking, admixed with 50 μl/well of 1 M acetic acid solution containing 1 mg/ml of pepsin, and shaken for four hours to solubilize collagen adhered to the cell surfaces, followed by quantifying the content of collagen accumulated in the cells using “Sircol Collagen Quantification Kit”, commercialized by Biocolor Ltd. These control and test solutions were respectively experimented with three wells, followed by calculating a mean value for collagen-production levels in the wells. All the cultures of the NHDF cells were conducted in a 5% (v/v) CO2 incubator. The results are in Table 1 where the values are expressed with relative values in terms of the collagen-production level of NHDF cells, which had been cultured in D-MEM medium containing AA-2G, being regarded as 100.

Assay [5] concerns skin wrinkles/finely-wrinkles and flabby skin. The assay can be described thus: Experiment 5: self-evaluation of lotions on skin wrinkles/finely-wrinkles and flabby skin, four months. The assay is classed as in vivo, human. The note with it: lotion, no saccharide, 3 times a day, 4 months. As for the experimental part:
The following experiment was conducted to examine the influence of α,α-trehalose or saccharide derivatives thereof and hyaluronic acid and/or chondroitin sulfate on the skin. Since there exists a relatively constant amount of L-ascorbic acid in vivo, the collagen production by L-ascorbic acid proceeds constantly. Based on the following basic formulation for lotion and the combination and composition in Table 5, 100 parts by weights of a lotion was prepared by adding to the basic formulation sodium hyaluronate, chondroitin sulfate, hydrous crystalline α,α-trehalose, a cosmetic grade specimen commercialized by Hayashibara Biochemical Laboratories Inc., Okayama, Japan, and “[…]”, a product name of a syrup having a solid content of about 75% and containing, on a dry solid basis, about 53% by weight of α-maltosyl α,α-trehalose and about 5% by weight of other saccharide derivatives of α,α-trehalose, and an adequate amount of refined water. In Table 5, the respective amounts of the added saccharide are expressed on a dry solid basis. The syrup containing saccharide derivatives of α,α-trehalose was added in an amount of the saccharide derivatives as shown in Table 5. Eleven women as volunteers, who had been suffering from skin wrinkles/finely-wrinkles or flabby skin, were allowed to wash their faces with any of the lotions having compositions in Table 5 three times a day for four months and then allowed to evaluate themselves about their face-skin conditions by comparing with those before use of the lotions.

Setting [6] is: saccharide 0.2 mg/ml + 50 μM AA-2G, relative to AA-2G = 100.
[7] abbreviates: saccharide 0.6 mg/ml + 50 μM AA-2G, relative to AA-2G = 100.
Where [8] appears, read: saccharide 1.7 mg/ml + 50 μM AA-2G, relative to AA-2G = 100.
[9] abbreviates: saccharide 5.0 mg/ml + 50 μM AA-2G, relative to AA-2G = 100.
Where [10] appears, read: saccharide 15.0 mg/ml + 50 μM AA-2G, relative to AA-2G = 100.
The mark [11] stands for this setting: D-MEM containing 50 μM AA-2G alone, reference regarded as 100.
Where [12] appears, read: chondroitin sulfate 0.5 part by weight.
The mark [13] stands for this setting: sodium hyaluronate 0.5 part by weight.

Turning to `OC[C@H]1O[C@H](O[C@H]2[C@H](O)[C@@H](O)C(O)O[C@@H]2CO)[C@H](O)[C@@H](O)[C@@H]1O` (mixture of isomers) [maltose], the “Collagen-production level, In supernatant” value in the assay with NHDF cells [1] (setting [6]) was determined as 101; with NHDF cells [1] (setting [7]), 134; in the assay with NHDF cells [1] (setting [8]), 288; in the assay on NHDF cells [1] (setting [9]), 256; in the assay on NHDF cells [1] (setting [10]) it was 228. The “Collagen-production level, Total” value in the assay on NHDF cells [1] (setting [6]) was found to be 99; in the assay with NHDF cells [1] (setting [7]), 92; in the assay on NHDF cells [1] (setting [8]), 97; in the assay with NHDF cells [1] (setting [9]), 61; with NHDF cells [1] (setting [10]), 44.
Regarding `O=C1O[C@H]([C@@H](O)CO)C(O)=C1O[C@H]1O[C@H](CO)[C@@H](O)[C@H](O)[C@H]1O` [AA-2G, L-ascorbic acid 2-glucoside, reference compound], the “Collagen-production level, In supernatant” value with NHDF cells [1] (setting [11]) is recorded as 100. Also, the “Collagen-production level, Total” value in the assay with NHDF cells [1] (setting [11]) was 100. Besides, the Collagen-production level with NHDF cells [2] (no saccharide, 50 μM AA-2G added, reference regarded as 100) turned out to be 100; with NHDF cells [3] (no saccharide, 50 μM AA-2G alone, reference regarded as 100), 100; in assay [4], 100.
On to `OC[C@H]1O[C@H](O[C@H]2O[C@H](CO)[C@@H](O[C@H]3O[C@H](CO)[C@@H](O[C@H]4O[C@H](CO)[C@@H](O)[C@H](O)[C@H]4O)[C@H](O)[C@H]3O)[C@H](O)[C@H]2O)[C@H](O)[C@@H](O)[C@@H]1O` [α-Maltosyl α,α-trehalose, α-maltosyl α,α-trehalose], for which the Collagen-production level in the assay on NHDF cells [2] (setting [10]) amounted to 182; in the assay with NHDF cells [2] (saccharide 15.0 mg/ml, AA-2G not added, relative to AA-2G = 100), 39; in the assay on NHDF cells [3] (saccharide 15.0 mg/ml + 50 μM AA-2G), 158; with NHDF cells [3] (saccharide 15.0 mg/ml + 50 μM AA-2G + chondroitin sulfate 1 mg/ml) it was 188; with NHDF cells [3] (saccharide 15.0 mg/ml + 50 μM AA-2G + hyaluronate and chondroitin sulfate 0.5 mg/ml each) it was 276; in the assay with NHDF cells [3] (saccharide 15.0 mg/ml + 50 μM AA-2G + sodium hyaluronate 1 mg/ml) it was 199. The Collagen-production level in the assay on NHDF cells [3] (saccharide 15.0 mg/ml alone, no AA-2G, no hyaluronate, no chondroitin sulfate) was 39.
Turning to chondroitin sulfate, in assay [5] (setting [12]), the “Evaluation A (remarkably efficacious)” value was 0 number of volunteers, the “Evaluation B (efficacious)” value is 0 number of volunteers, the “Evaluation C (slightly efficacious)” value was 1 number of volunteers and the “Evaluation D (inefficacious)” value is given as 10 number of volunteers. Besides, in the assay on NHDF cells [3] (no saccharide, 50 μM AA-2G + chondroitin sulfate 1 mg/ml), the Collagen-production level was 97.
As to sodium hyaluronate, in assay [5] (setting [13]), the “Evaluation A (remarkably efficacious)” value is on record as 0 number of volunteers, the “Evaluation B (efficacious)” value is 0 number of volunteers, the “Evaluation C (slightly efficacious)” value is recorded as 2 number of volunteers and the “Evaluation D (inefficacious)” value was 9 number of volunteers. Further, in the assay with NHDF cells [3] (no saccharide, 50 μM AA-2G + sodium hyaluronate 1 mg/ml), the Collagen-production level stood at 98.
